# Assay results as given in patent publication US20190307754A1, “PDE9 INHIBITORS FOR TREATMENT OF PERIPHERAL DISEASES” (IMARA, INC., priority 2016, published 2019).
# Key:
# [1] = test system: PDE1; assay: PDE1 inhibition assay; type: biochemical
# Experimental: Reactions were initiated by addition of the cyclic nucleotide substrate, and reactions were allowed to proceed for 1 h at room temperature before being terminated through mixing with 20 μL (0.2 mg) yttrium silicate SPA beads (PerkinElmer).
# [2] = test system: C57Bl/6J mice; assay: Locomotor activity and contextual fear conditioning in C57Bl/6J mice; type: in vivo; conditions: gavage, 5 days
# Experimental: The exposure of both compounds was also evaluated in the plasma, brain, and eye. […] During the treatment period all animals were assessed for contextual fear conditioning and a subset of 7 animals per group was evaluated for locomotor activity. On Day 5, plasma, brain, and eye tissue were collected 30 minutes after dosing from 3 animals per treated group to measure concentrations of test item.
# [3] = test system: K562 erythroleukemic cells; assay: cGMP in cultured K562 cells; type: cell-based; conditions: 16 hours
# Experimental: Hydroxyurea was included as a comparator as it is currently the only FDA approved treatment for this disease (Charache et al., N Engl J Med., 332(20):1317-22. (1995)). One of the proposed mechanisms of action of HU in SCD is that it may generate NO and modulation of intracellular levels of the NO second messenger, cGMP, may represent an effective and cell-specific approach for amplifying intracellular NO-dependent signaling.
# K562 cells were cultured at 37° C. in IMDM® to which the required concentrations of test items or dimethyl sulfoxide (DMSO; negative Control) had been added. Plated cells were maintained at 37° C. for 16 hours at the end of which the amount of cGMP was detected by enzyme immunoassay.
# [4] = test system: K562 erythroleukemic cells; assay: HbF in cultured K562 cells; type: cell-based; conditions: 3 days
# Experimental: K562 cells were cultured at 37° C. in IMDM® to which the required concentrations of test items or DMSO (negative control) had been added. Plated cells were maintained at 37° C. for 3 days at the end of which the presence of HbF within cells was detected by flow cytometry.
# [5] = test system: TNF-α activated human endothelial cells; assay: Micro-channel PMN adhesion assay under flow (FIG. 9); type: cell-based
# Text: In this study, the effects of Compound P3.1 on PMN adhesion to TNF-α activated human endothelial cell monolayers under flow conditions are investigated. It has been validated in vitro dynamic assay mimics neutrophil recruitment to endothelial cell monolayers under inflammatory conditions (TNF-α activation). In this assay, both control and sickle PMNs adhere to endothelial cells but to different degrees, reflecting in vivo conditions. The human dermal microvascular endothelial cell line HMEC-1 is used in this approach. The potential inhibitory effect of Compound P3.1 is tested in parallel and compared with the effect of HU and other PDE9 inhibitors.
# In a first step, the effects of 1 uM Compound P3.1 and 10 uM HU were tested by incubating blood samples from healthy volunteers (n=3-6) (i.e., donors or donor cells) with these molecules.
# Adhesion of PMNs from healthy volunteers was assessed under flow conditions, mimicking blood flow, in micro channels (Venaflux, Cellix, Ireland) coated with endothelial cell monolayers cultivated under inflammatory conditions. The adhesion assay was performed with whole fresh blood, previously incubated or not with Compound P3.1, to be closer to the physiological condition of circulation in a person, and to study the interaction between the different blood cells with PMNs.
# [6] = test system: HbSS-Townes mice; assay: Microvascular stasis and hematology in HbSS-Townes mice; type: in vivo
# Experimental: The ability of Compound P3.1 to reduce vaso-occulsion was assessed in HbSS-Townes transgenic sickle mice after transient hypoxia and re-oxygenation. This study assessed the effects of repeated (10 days) oral dosing of Compound P3.1 and HU on microvascular stasis and other hematological markers of sickle cell disease, after transient hypoxia and re-oxygenation, in Townes transgenic sickle mice, a mouse model of sickle cell disease (Hba^tm1(HBA)Tow Hbb^tm2(HBG1,HBB*)Tow/Hbb^tm3(HBG1,HBB)Tow/J). HbSS-Townes mice were divided into groups of 3 mice and were then dosed orally via drinking water with Compound P3.1 at 10 mg/kg/day, Compound P3.1 at 30 mg/kg/day, HU (100 mg/kg/day), or a combination of Compound P3.1 and HU (at doses of 30 and 100 mg/kg/day, respectively) for 10 days. A final group received water containing 0.08% methylcellulose, the vehicle used to prepare the test items, and served as controls. On Day 7 of treatment, the mice were implanted with dorsal skin-fold chambers (DSFC), and on Day 10 of treatment, 20-23 flowing subcutaneous venules in the DSFC window were selected and mapped. After venule selection and mapping, mice were placed in a chamber and exposed to a hypoxic atmosphere (7% O2/93% N2) for 1 hour, after which they were returned to room air. All of the selected venules were re-examined after 1 and 4 hours of re-oxygenation in room air and the number of static (no flow) venules was counted and expressed as percent stasis. On completion of these measurements, blood was collected for clinical pathology with a focus on hematological measures associated with sickle cell disease.
# [7] = test system: Berkeley sickle cell transgenic mice; assay: HbF positive and sickled red blood cells in Berkeley sickle cell transgenic mice; type: in vivo; conditions: 30 mg/kg/day Compound P3.1 or 100 mg/kg/day HU, gavage, 30 days
# Experimental: This study assessed the effects of chronic dosing (30 day) of Compound P3.1 and HU on HbF and cell sickling in a mouse model of sickle cell disease. Berkeley sickle cell transgenic mice (Hbatm1PazHbbtm1Tow Tg(HBA-HBBs)41Paz/J) were divided into groups of 7 to 8 animals and were dosed once daily, by gavage, for 30 days with either vehicle (PEG:water), 30 mg/kg/day of Compound P3.1, or 100 mg/kg/day of HU. This mouse genotype mimics the genetic, hematologic and histopathologic features that are found in humans afflicted with sickle cell anemia, including irreversibly sickled RBCs, anemia and multi-organ pathology. Blood was collected from treated animals on Day 30 for limited routine hematology as well as derivation of the percent of sickled and HbF positive RBCs and total bilirubin. At termination, the spleen was removed and weighed.
# [8] = test system: CD34+ derived red blood cells from SCD subjects; conditions: 5 days
# [9] = test system: TNF-α activated endothelium; assay: Micro-channel assay of platelet, PMN and RBC binding (FIG. 10); type: cell-based, human; conditions: Compound P3.1 2 or 3 hours, HU 3 hours; bound cells at 30 min
# Experimental: In another assay, using the same method, the reduction of PMN and RBC bindings to TNF-α activated endothelium in a micro channel well was confirmed. Platelet, PMN, and RBC in blood samples from 5 healthy normal volunteers (donors) were labelled with fluorescent dyes. The blood samples were incubated with Compound P3.1 for 2 hours or 3 hours, or HU for 3 hours, prior to running them on micro channels that were previously coated with endothelial cells activated with TNF-α. The % of bound cells was quantified at 30 min. Results are shown in FIG. 10A, FIG. 10B, and FIG. 10C.
# [10] = Compound P3.1 30 mg/kg/day, HU 100 mg/kg/day, or both, 10 days
smiles,measurement,setting,value
"C[C@@H]1CN(Cc2ncccn2)C[C@H]1c1nc2c(cnn2C2CCOCC2)c(=O)[nH]1 (single isomer, unassigned) [AF27873]",IC50,[1],2500 nM
same,conditioned freezing vs vehicle controls,[2]; 10 mg/kg/day,significantly (p<0.05) more conditioned freezing
same,conditioned freezing vs vehicle controls,[2]; 30 mg/kg/day,not observed
"NC(=O)NO [Hydroxyurea, reference compound]",effect on cGMP levels,[3],dose-dependent and statistically significant increases in cGMP levels
same,HbF positive cells,[4]; 100 μM,92.6%
same,effect on HbF-positive cells by concentration,[4],statistically significant increases in HbF-positive cells at concentrations of 10 μM and above (but not at 1 and 3 μM)
same,adhesion of high-binding donor cells,"[5]; 1 uM Compound P3.1 or 10 uM HU, whole blood of healthy volunteers",reduced the binding of 2 of 3 of the high binding donors
same,toxicity to donor samples,[5]; 10 uM HU,3 of 9 of the donor samples did not survive HU treatment
same,microvascular stasis,"[6]; 30 mg/kg/day Compound P3.1 or 100 mg/kg HU, drinking water, 10 days, 1 and 4 hours post hypoxia",statistically significant reductions in stasis
same,total WBC numbers,"[6]; Compound P3.1 30 mg/kg/day or HU 100 mg/kg/day, 10 days",reduce total WBC numbers
same,vessel occlusion induced by transient hypoxia and re-oxygenation,"[6]; Compound P3.1 30 mg/kg/day, HU 100 mg/kg/day, or both",effectively reduced
same,number of HbF positive red cells,[6]; [10],increase the number of HbF positive red cells
same,proportion of sickled RBCs,[6]; [10],reduce the proportion of sickled RBCs
same,"RBC count, hemoglobin concentration or hematocrit",[7],not associated with any apparent alterations
same,neutrophil levels,[7],reduced neutrophil levels
same,spleen weight,[7],statistically significant decreases
same,total bilirubin,[7],statistically significant decreases
same,total leucocyte count,[7],statistically significant decreases
same,percentage of HbF positive RBCs,[7]; vs controls,increases in the percentage of HbF positive RBCs
same,percentage of sickled RBCs,[7]; vs controls,statistically significant decreases in the percentage of sickled RBCs
same,amount of HbF within cells (mean MFI),"[8]; 30 μM HU, remaining 3 subjects","19,383"
same,mean MFI of HbF relative to controls,"[8]; 30 μM HU, remaining 3 subjects",258%
same,percentage of HbF positive CD36+ cells (mean),"[8]; 30 μM HU, remaining 3 subjects",23.9%
same,cell death,"[8]; human, 30 μM",greater than 80%
same,viability,"[8]; human, 30 μM",< 80%
same,platelet binding,[9],did not impact platelet binding
